Measured values: patent US8445492B2, “Method for inhibiting growth of cancer cells and cell telomere and diseases of cell proliferation by using heteroannelated anthraquinone derivative compounds” (National Defense Medical Center, priority 2008, dated 2013)

What was measured:
Format in all cases: cell-based
MDA-MB-435 = assay: in vitro test at 1.0×10^−5 M, Breast cancer cell; conditions: 1.0×10^−5 molal concentration (M)
MOLT-4 = assay: in vitro test at 1.0×10^−5 M, Blood cancer cell; conditions: 1.0×10^−5 molal concentration (M)
ACHN = assay: in vitro test at 1.0×10^−5 M, Kidney cancer cell; conditions: 1.0×10^−5 molal concentration (M)
SN12C [1] = assay: in vitro test at 1.0×10^−5 M, Kidney cancer cell; conditions: 1.0×10^−5 molal concentration (M)
UACC-62 [2] = assay: in vitro test at 1.0×10^−5 M, Skin cancer cell; conditions: 1.0×10^−5 molal concentration (M)
SF-539 [3] = assay: in vitro test at 1.0×10^−5 M, CNS cancer cell; conditions: 1.0×10^−5 molal concentration (M)
U251 = assay: in vitro test at 1.0×10^−5 M, CNS cancer cell; conditions: 1.0×10^−5 molal concentration (M)
SR = assay: NCI DTP in-vitro dose response, Leukemia
HCT-116 = assay: NCI DTP in-vitro dose response, Colon Cancer
SF-539 [4] = assay: NCI DTP in-vitro dose response, CNS Cancer
MALME-3M = assay: NCI DTP in-vitro dose response, Melanoma
M14 = assay: NCI DTP in-vitro dose response, Melanoma
SK-MEL-2 = assay: NCI DTP in-vitro dose response, Melanoma
SK-MEL-28 = assay: NCI DTP in-vitro dose response, Melanoma
UACC-62 [5] = assay: NCI DTP in-vitro dose response, Melanoma
OVCAR-3 = assay: NCI DTP in-vitro dose response, Ovarian Cancer
OVCAR-5 = assay: NCI DTP in-vitro dose response, Ovarian Cancer
SK-OV-3 = assay: NCI DTP in-vitro dose response, Ovarian Cancer
SN12C [6] = assay: NCI DTP in-vitro dose response, Renal Cancer
MDA-MB-468 = assay: NCI DTP in-vitro dose response, Breast Cancer

Q: `CCc1nc2ccc3c(c2[nH]1)C(=O)c1ccccc1C3=O` [No. 4, 2-Ethyl-1(3)H-anthra[1,2-d]imidazole-6,11-dione] was tested. Which “inhibition effect on cancer cell line (Table 2 value)” value (“inhibition effect on cancer cell line” below) (MDA-MB-435) did it give?
A: Its value is 84.39.

Q: What about the “inhibition effect on cancer cell line” value (MOLT-4) of the same compound?
A: The value was 64.17.

Q: And the “inhibition effect on cancer cell line” value (ACHN)?
A: The value was 24.97.

Q: What about the “inhibition effect on cancer cell line” value (SN12C [1]) of the same compound?
A: The value was 68.53.

Q: What about the “inhibition effect on cancer cell line” value (UACC-62 [2]) of the same compound?
A: Its value is 51.35.

Q: And the “inhibition effect on cancer cell line” value (SF-539 [3])?
A: The value was 83.16.

Q: And the “inhibition effect on cancer cell line” value (U251)?
A: The value was 60.13.

Q: What does the source list for `O=C1c2ccccc2C(=O)c2c1ccc1nsnc21` [No. 22, Anthra[2,1-c][1,2,5]thiadiazole-6,11-dione]?
A: GI50 (SR; Homo sapiens, SR): 6.89 µM; CC50 (SR; Homo sapiens, SR, read-out: LC50): > 100 µM; Percent Growth (SR; Log10 Concentration −4.0): −22%; Percent Growth (SR; Log10 Concentration −5.0): 41%; Percent Growth (SR; Log10 Concentration −6.0): 99%; Percent Growth (SR; Log10 Concentration −7.0): 112%; Percent Growth (SR; Log10 Concentration −8.0): 108%; TGI (SR; SR): >1.00E−4; TGI (HCT-116; HCT-116): 1.06E−5; GI50 (HCT-116; Homo sapiens, HCT-116): 2.84 µM; CC50 (HCT-116; Homo sapiens, HCT-116, read-out: LC50): > 100 µM; Percent Growth (HCT-116; Log10 Concentration −4.0): −31%; Percent Growth (HCT-116; Log10 Concentration −5.0): 1%; Percent Growth (HCT-116; Log10 Concentration −6.0): 91%; Percent Growth (HCT-116; Log10 Concentration −7.0): 97%; Percent Growth (HCT-116; Log10 Concentration −8.0): 99%; GI50 (SF-539 [4]; Homo sapiens, SF-539): 1.52 µM; CC50 (SF-539 [4]; Homo sapiens, SF-539, read-out: LC50): 5.38 µM; Percent Growth (SF-539 [4]; Log10 Concentration −4.0): −98%; Percent Growth (SF-539 [4]; Log10 Concentration −5.0): −99%; Percent Growth (SF-539 [4]; Log10 Concentration −6.0): 83%; Percent Growth (SF-539 [4]; Log10 Concentration −7.0): 84%; Percent Growth (SF-539 [4]; Log10 Concentration −8.0): 90%; TGI (SF-539 [4]; SF-539): 2.86E−6; GI50 (MALME-3M; Homo sapiens, Malme-3M): 2.37 µM; CC50 (MALME-3M; Homo sapiens, Malme-3M, read-out: LC50): 9.55 µM; Percent Growth (MALME-3M; Log10 Concentration −4.0): −72%; Percent Growth (MALME-3M; Log10 Concentration −5.0): −53%; Percent Growth (MALME-3M; Log10 Concentration −6.0): 112%; Percent Growth (MALME-3M; Log10 Concentration −7.0): 115%; Percent Growth (MALME-3M; Log10 Concentration −8.0): 102%; TGI (MALME-3M; MALME-3M): 4.76E−6; GI50 (M14; Homo sapiens, M14): 2.44 µM; CC50 (M14; Homo sapiens, M14, read-out: LC50): > 100 µM; Percent Growth (M14; Log10 Concentration −4.0): −41%; Percent Growth (M14; Log10 Concentration −5.0): −32%; Percent Growth (M14; Log10 Concentration −6.0): 102%; Percent Growth (M14; Log10 Concentration −7.0): 100%; Percent Growth (M14; Log10 Concentration −8.0): 100%; TGI (M14; M14): 5.78E−6; GI50 (SK-MEL-2; Homo sapiens, SK-MEL-2): 2.38 µM; CC50 (SK-MEL-2; Homo sapiens, SK-MEL-2, read-out: LC50): > 100 µM; Percent Growth (SK-MEL-2; Log10 Concentration −4.0): −32%; Percent Growth (SK-MEL-2; Log10 Concentration −5.0): −22%; Percent Growth (SK-MEL-2; Log10 Concentration −6.0): 94%; Percent Growth (SK-MEL-2; Log10 Concentration −7.0): 109%; Percent Growth (SK-MEL-2; Log10 Concentration −8.0): 110%; TGI (SK-MEL-2; SK-MEL-2): 6.42E−6; GI50 (SK-MEL-28; Homo sapiens, SK-MEL-28): 9.88 µM; CC50 (SK-MEL-28; Homo sapiens, SK-MEL-28, read-out: LC50): 50.3 µM; Percent Growth (SK-MEL-28; Log10 Concentration −4.0): −93%; Percent Growth (SK-MEL-28; Log10 Concentration −5.0): 50%; Percent Growth (SK-MEL-28; Log10 Concentration −6.0): 107%; Percent Growth (SK-MEL-28; Log10 Concentration −7.0): 106%; Percent Growth (SK-MEL-28; Log10 Concentration −8.0): 103%; TGI (SK-MEL-28; SK-MEL-28): 2.24E−5; GI50 (UACC-62 [5]; Homo sapiens, UACC-62): 2.31 µM; CC50 (UACC-62 [5]; Homo sapiens, UACC-62, read-out: LC50): 96.2 µM; Percent Growth (UACC-62 [5]; Log10 Concentration −4.0): −50%; Percent Growth (UACC-62 [5]; Log10 Concentration −5.0): −23%; Percent Growth (UACC-62 [5]; Log10 Concentration −6.0): 92%; Percent Growth (UACC-62 [5]; Log10 Concentration −7.0): 91%; Percent Growth (UACC-62 [5]; Log10 Concentration −8.0): 89%; TGI (UACC-62 [5]; UACC-62): 6.29E−6; GI50 (OVCAR-3; Homo sapiens, OVCAR-3): 2.06 µM; CC50 (OVCAR-3; Homo sapiens, OVCAR-3, read-out: LC50): 28.2 µM; Percent Growth (OVCAR-3; Log10 Concentration −4.0): −75%; Percent Growth (OVCAR-3; Log10 Concentration −5.0): −29%; Percent Growth (OVCAR-3; Log10 Concentration −6.0): 86%; Percent Growth (OVCAR-3; Log10 Concentration −7.0): 110%; Percent Growth (OVCAR-3; Log10 Concentration −8.0): 116%; TGI (OVCAR-3; OVCAR-3): 5.59E−6; GI50 (OVCAR-5; Homo sapiens, OVCAR-5): 2.18 µM; CC50 (OVCAR-5; Homo sapiens, OVCAR-5, read-out: LC50): 9.06 µM; Percent Growth (OVCAR-5; Log10 Concentration −4.0): −58%; Percent Growth (OVCAR-5; Log10 Concentration −5.0): −57%; Percent Growth (OVCAR-5; Log10 Concentration −6.0): 105%; Percent Growth (OVCAR-5; Log10 Concentration −7.0): 94%; Percent Growth (OVCAR-5; Log10 Concentration −8.0): 99%; TGI (OVCAR-5; OVCAR-5): 4.44E−6; GI50 (SK-OV-3; Homo sapiens, SK-OV-3): 2.26 µM; CC50 (SK-OV-3; Homo sapiens, SK-OV-3, read-out: LC50): 23.6 µM; Percent Growth (SK-OV-3; Log10 Concentration −4.0): −97%; Percent Growth (SK-OV-3; Log10 Concentration −5.0): −22%; Percent Growth (SK-OV-3; Log10 Concentration −6.0): 89%; Percent Growth (SK-OV-3; Log10 Concentration −7.0): 90%; Percent Growth (SK-OV-3; Log10 Concentration −8.0): 102%; TGI (SK-OV-3; SK-OV-3): 6.35E−6; GI50 (SN12C [6]; Homo sapiens, SN12C): 2.35 µM; CC50 (SN12C [6]; Homo sapiens, SN12C, read-out: LC50): > 100 µM; Percent Growth (SN12C [6]; Log10 Concentration −4.0): −35%; Percent Growth (SN12C [6]; Log10 Concentration −5.0): −7%; Percent Growth (SN12C [6]; Log10 Concentration −6.0): 83%; Percent Growth (SN12C [6]; Log10 Concentration −7.0): 103%; Percent Growth (SN12C [6]; Log10 Concentration −8.0): 91%; TGI (SN12C [6]; SN12C): 8.42E−6; GI50 (MDA-MB-468; Homo sapiens, MDA-MB-468): 1.83 µM; CC50 (MDA-MB-468; Homo sapiens, MDA-MB-468, read-out: LC50): 5.72 µM; Percent Growth (MDA-MB-468; Log10 Concentration −4.0): −99%; Percent Growth (MDA-MB-468; Log10 Concentration −5.0): −99%; Percent Growth (MDA-MB-468; Log10 Concentration −6.0): 103%; Percent Growth (MDA-MB-468; Log10 Concentration −7.0): 101%; Percent Growth (MDA-MB-468; Log10 Concentration −8.0): 97%; TGI (MDA-MB-468; MDA-MB-468): 3.24E−6
